Values belong to the molecule of their own block, whether it stands above or below them.
Assays:
[1] = biological target: T1, hGlyT2 transporter (full-length) (Homo sapiens, UniProt Q9Y345, G24S/N188D/Q362L/R74W/S155G/T582S/V431A); conditions: full-length hGlyT2, COS-7 cells
T1 sequence (Q9Y345 1-797 G24S/R74W/S155G/N188D/Q362L/V431A/T582S): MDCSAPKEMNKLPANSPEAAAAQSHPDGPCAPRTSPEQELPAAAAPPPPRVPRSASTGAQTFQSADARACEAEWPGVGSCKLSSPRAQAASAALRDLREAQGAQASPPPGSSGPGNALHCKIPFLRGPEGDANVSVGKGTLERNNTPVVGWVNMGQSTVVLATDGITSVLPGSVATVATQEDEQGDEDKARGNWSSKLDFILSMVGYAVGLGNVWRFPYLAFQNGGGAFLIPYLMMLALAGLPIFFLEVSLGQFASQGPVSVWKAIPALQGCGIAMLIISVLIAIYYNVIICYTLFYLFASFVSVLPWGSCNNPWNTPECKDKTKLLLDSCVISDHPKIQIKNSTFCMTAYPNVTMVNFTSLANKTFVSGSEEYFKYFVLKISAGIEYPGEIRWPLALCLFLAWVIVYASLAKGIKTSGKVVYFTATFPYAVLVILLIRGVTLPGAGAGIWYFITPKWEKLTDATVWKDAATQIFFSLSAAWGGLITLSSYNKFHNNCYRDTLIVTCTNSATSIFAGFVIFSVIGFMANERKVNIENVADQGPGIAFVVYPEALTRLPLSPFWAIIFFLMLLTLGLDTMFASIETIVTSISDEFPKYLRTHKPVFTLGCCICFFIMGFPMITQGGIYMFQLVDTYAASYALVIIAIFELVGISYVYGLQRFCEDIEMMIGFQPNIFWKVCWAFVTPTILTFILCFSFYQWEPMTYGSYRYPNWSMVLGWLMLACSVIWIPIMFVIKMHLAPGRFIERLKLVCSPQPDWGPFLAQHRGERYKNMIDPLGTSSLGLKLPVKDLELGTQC

[2] = biological target: T2, truncated hGlyT2 (start at Met-154, lacking the first 153 amino acids) (Homo sapiens, UniProt Q9Y345, N188D/Q362L/S155G/T582S/V431A); conditions: truncated hGlyT2, COS-7 cells
T2 sequence (Q9Y345 154-797 S155G/N188D/Q362L/V431A/T582S): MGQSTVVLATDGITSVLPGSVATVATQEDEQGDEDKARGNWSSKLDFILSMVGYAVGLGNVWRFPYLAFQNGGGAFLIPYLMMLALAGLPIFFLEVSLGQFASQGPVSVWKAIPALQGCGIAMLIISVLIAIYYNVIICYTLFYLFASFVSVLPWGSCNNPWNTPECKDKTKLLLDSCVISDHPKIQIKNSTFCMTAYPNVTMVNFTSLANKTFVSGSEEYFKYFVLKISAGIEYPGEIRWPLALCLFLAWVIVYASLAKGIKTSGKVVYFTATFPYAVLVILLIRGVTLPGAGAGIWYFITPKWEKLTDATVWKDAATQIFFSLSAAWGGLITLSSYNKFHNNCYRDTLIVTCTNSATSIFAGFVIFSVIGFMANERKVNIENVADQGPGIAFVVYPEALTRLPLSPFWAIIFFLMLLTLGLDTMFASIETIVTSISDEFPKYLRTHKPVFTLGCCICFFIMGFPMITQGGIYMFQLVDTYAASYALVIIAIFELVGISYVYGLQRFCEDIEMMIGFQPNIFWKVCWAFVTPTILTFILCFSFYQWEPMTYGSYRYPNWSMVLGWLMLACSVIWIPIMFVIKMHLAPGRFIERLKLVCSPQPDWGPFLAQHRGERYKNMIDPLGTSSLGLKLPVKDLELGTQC

[3] = biological target: T3, rat GlyT2 (Rattus norvegicus, UniProt P58295); conditions: Liu et al. 1993, cited from earlier work
T3 sequence (P58295 1-799): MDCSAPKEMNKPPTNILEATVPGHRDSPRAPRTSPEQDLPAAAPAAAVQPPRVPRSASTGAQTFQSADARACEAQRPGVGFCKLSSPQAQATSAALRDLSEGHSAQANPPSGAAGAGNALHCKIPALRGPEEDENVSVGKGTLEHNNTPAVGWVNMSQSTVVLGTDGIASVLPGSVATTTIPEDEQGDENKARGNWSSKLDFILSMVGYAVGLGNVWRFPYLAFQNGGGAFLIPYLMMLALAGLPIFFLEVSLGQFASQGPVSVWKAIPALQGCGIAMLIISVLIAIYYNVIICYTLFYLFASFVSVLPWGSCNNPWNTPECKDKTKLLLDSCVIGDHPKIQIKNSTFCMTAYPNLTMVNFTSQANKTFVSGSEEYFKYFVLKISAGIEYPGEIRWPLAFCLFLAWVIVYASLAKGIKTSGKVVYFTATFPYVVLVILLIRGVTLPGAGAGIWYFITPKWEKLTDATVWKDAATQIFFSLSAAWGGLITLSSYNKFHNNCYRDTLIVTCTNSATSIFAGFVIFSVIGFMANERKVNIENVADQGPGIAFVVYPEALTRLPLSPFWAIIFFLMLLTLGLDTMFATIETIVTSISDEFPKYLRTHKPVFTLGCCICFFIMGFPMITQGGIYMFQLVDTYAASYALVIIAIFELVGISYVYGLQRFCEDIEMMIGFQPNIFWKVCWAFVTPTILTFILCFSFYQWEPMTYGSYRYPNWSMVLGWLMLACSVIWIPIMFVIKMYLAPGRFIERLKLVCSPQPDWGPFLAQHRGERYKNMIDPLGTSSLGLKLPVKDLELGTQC

[4] = biological target: T4, GlyT1 (Homo sapiens, UniProt P48067); conditions: sarcosine concentration exceeds 200 μM; cited from earlier work
T4 sequence (P48067 1-706): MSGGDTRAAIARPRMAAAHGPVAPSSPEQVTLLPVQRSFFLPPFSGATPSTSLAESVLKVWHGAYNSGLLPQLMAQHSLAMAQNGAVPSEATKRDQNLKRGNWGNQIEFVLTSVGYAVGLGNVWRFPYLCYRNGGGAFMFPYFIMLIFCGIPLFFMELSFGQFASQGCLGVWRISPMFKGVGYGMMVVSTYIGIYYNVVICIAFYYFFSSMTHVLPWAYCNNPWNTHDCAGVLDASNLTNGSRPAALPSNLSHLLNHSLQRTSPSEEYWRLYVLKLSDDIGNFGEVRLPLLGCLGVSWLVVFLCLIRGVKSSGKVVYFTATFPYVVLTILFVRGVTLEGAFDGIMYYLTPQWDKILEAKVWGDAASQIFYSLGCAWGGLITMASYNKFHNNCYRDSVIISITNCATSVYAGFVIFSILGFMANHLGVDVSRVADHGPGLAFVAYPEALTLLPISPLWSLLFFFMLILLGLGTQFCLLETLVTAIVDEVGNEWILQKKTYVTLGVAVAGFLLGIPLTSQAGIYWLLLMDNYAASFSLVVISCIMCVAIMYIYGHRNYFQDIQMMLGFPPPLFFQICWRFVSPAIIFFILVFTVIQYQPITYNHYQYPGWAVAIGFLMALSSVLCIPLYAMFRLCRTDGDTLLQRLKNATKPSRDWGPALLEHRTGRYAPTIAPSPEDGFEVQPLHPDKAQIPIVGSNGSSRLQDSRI

[5] = substrate: NCC(=O)O; experiment: cells, lysate or membranes; conditions: pH 7.4
[6] = 1 mM sarcosine, 15 min pretreatment

Vmax of glycine uptake (Eadie-Hofstee) [1]: 190±3 pmol glycine/mg protein/min
Vmax of glycine uptake [2]: 67±3 pmol glycine/mg protein/min
Molecule: NCC(=O)O [glycine]
Km ([3]; read-out: Km reported for rat GlyT2): 13 µM

reduction of glycine uptake [1, 6]: less than 15%
effect of increasing concentrations of sarcosine on glycine uptake (FIG. 5) [1]: insensitive to sarcosine inhibition
reduction of glycine uptake [2, 6]: less than 15%
effect of increasing concentrations of sarcosine on glycine uptake (FIG. 5) [2]: insensitive to sarcosine inhibition
Molecule: CNCC(=O)O [sarcosine]
inhibition of rat GlyT2-mediated glycine uptake ([3]; sarcosine 1 mM): 10-20%
inhibition of GlyT1-mediated glycine uptake [4]: almost completely inhibited

B1: hGlyT2 transporter (full-length) (Homo sapiens; G24S/N188D/Q362L/R74W/S155G/T582S/V431A) (protein)
chain: MDCSAPKEMNKLPANSPEAAAAQSHPDGPCAPRTSPEQELPAAAAPPPPRVPRSASTGAQTFQSADARACEAEWPGVGSCKLSSPRAQAASAALRDLREAQGAQASPPPGSSGPGNALHCKIPFLRGPEGDANVSVGKGTLERNNTPVVGWVNMGQSTVVLATDGITSVLPGSVATVATQEDEQGDEDKARGNWSSKLDFILSMVGYAVGLGNVWRFPYLAFQNGGGAFLIPYLMMLALAGLPIFFLEVSLGQFASQGPVSVWKAIPALQGCGIAMLIISVLIAIYYNVIICYTLFYLFASFVSVLPWGSCNNPWNTPECKDKTKLLLDSCVISDHPKIQIKNSTFCMTAYPNVTMVNFTSLANKTFVSGSEEYFKYFVLKISAGIEYPGEIRWPLALCLFLAWVIVYASLAKGIKTSGKVVYFTATFPYAVLVILLIRGVTLPGAGAGIWYFITPKWEKLTDATVWKDAATQIFFSLSAAWGGLITLSSYNKFHNNCYRDTLIVTCTNSATSIFAGFVIFSVIGFMANERKVNIENVADQGPGIAFVVYPEALTRLPLSPFWAIIFFLMLLTLGLDTMFASIETIVTSISDEFPKYLRTHKPVFTLGCCICFFIMGFPMITQGGIYMFQLVDTYAASYALVIIAIFELVGISYVYGLQRFCEDIEMMIGFQPNIFWKVCWAFVTPTILTFILCFSFYQWEPMTYGSYRYPNWSMVLGWLMLACSVIWIPIMFVIKMHLAPGRFIERLKLVCSPQPDWGPFLAQHRGERYKNMIDPLGTSSLGLKLPVKDLELGTQC
Km ([5]; other: full-length hGlyT2, COS-7 cells, 15 min at 37° C.): 10 ± 0.4 µM

B2: truncated hGlyT2 (start at Met-154, lacking the first 153 amino acids) (Homo sapiens; N188D/Q362L/S155G/T582S/V431A) (protein)
chain: MGQSTVVLATDGITSVLPGSVATVATQEDEQGDEDKARGNWSSKLDFILSMVGYAVGLGNVWRFPYLAFQNGGGAFLIPYLMMLALAGLPIFFLEVSLGQFASQGPVSVWKAIPALQGCGIAMLIISVLIAIYYNVIICYTLFYLFASFVSVLPWGSCNNPWNTPECKDKTKLLLDSCVISDHPKIQIKNSTFCMTAYPNVTMVNFTSLANKTFVSGSEEYFKYFVLKISAGIEYPGEIRWPLALCLFLAWVIVYASLAKGIKTSGKVVYFTATFPYAVLVILLIRGVTLPGAGAGIWYFITPKWEKLTDATVWKDAATQIFFSLSAAWGGLITLSSYNKFHNNCYRDTLIVTCTNSATSIFAGFVIFSVIGFMANERKVNIENVADQGPGIAFVVYPEALTRLPLSPFWAIIFFLMLLTLGLDTMFASIETIVTSISDEFPKYLRTHKPVFTLGCCICFFIMGFPMITQGGIYMFQLVDTYAASYALVIIAIFELVGISYVYGLQRFCEDIEMMIGFQPNIFWKVCWAFVTPTILTFILCFSFYQWEPMTYGSYRYPNWSMVLGWLMLACSVIWIPIMFVIKMHLAPGRFIERLKLVCSPQPDWGPFLAQHRGERYKNMIDPLGTSSLGLKLPVKDLELGTQC
Km ([5]; other: truncated hGlyT2, COS-7 cells, 37.0 °C): 9 ± 1 µM

From patent publication US6416975B1 (Gliatech, Inc., priority 1998, dated 2002)
